From the NIST ThermoML archive (doi:10.1021/je700363m)
Numbers after ± are expanded uncertainties.

Test: wn = mass fraction of the nth substance listed
Conditions: 101 kPa, Liquid; for viscosity: Capillary tube (Ostwald / Ubbelohde) method

Row | Compound | viscosity (298.15 K, w1 = 0.0931) [mPa·s] | mass density (298.15 K, w1 = 0.049) [kg/m3] | mass density (298.15 K, w1 = 0.0538) [kg/m3] | mass density (298.15 K, w1 = 0.0653) [kg/m3] | viscosity (313.15 K, w1 = 0.0931) [mPa·s] | viscosity (313.15 K, w1 = 0.0478) [mPa·s] | viscosity (313.15 K, w1 = 0.0906) [mPa·s] | mass density (313.15 K, w1 = 0.02) [kg/m3] | mass density (313.15 K, w1 = 0.05) [kg/m3] | viscosity (319.15 K, w1 = 0.155) [mPa·s] | mass density (319.15 K, w1 = 0.155) [kg/m3] | viscosity (323.25 K, w1 = 0.172) [mPa·s] | mass density (323.25 K, w1 = 0.172) [kg/m3] | mass density (333.15 K, w1 = 0.02) [kg/m3] | mass density (333.15 K, w1 = 0.05) [kg/m3] | mass density (333.32 K, w1 = 0.214) [kg/m3] | viscosity (333.35 K, w1 = 0.214) [mPa·s]
1 | [K+].[K+].[O]=[Cr](=[O])([O-])[O-] [potassium chromate(VI)] + O | 0.9285 ± 0.0077 | 1034.6 ± 1 | 1038.3 ± 1 | 1046.8 ± 1 | 0.7309 ± 0.0062 | – | – | – | – | – | – | – | – | – | – | – | –
2 | [K+].[K+].[O]=[Cr](=[O])([O-])[O][Cr](=[O])(=[O])[O-] [potassium dichromate] + O | – | – | – | – | – | 0.6465 ± 0.0055 | 0.6805 ± 0.0058 | 1006.5 ± 1.1 | 1026.8 ± 1.2 | 0.6914 ± 0.0059 | 1166.5 ± 1.4 | 0.6658 ± 0.0057 | 1184.2 ± 1.5 | 997 ± 1.3 | 1016.4 ± 1.3 | 1232.1 ± 1.6 | 0.6307 ± 0.0054
